Where two headings read alike, the source gives them in different places. Values belong to the molecule of their own block, whether it stands above or below them.
Assays:
MES seizures, mice = test: Maximal electroshock (MES) seizure test; assay type: in vivo; details: Mus musculus, ip; for responders at 100 mg/kg: 0.5 h, i.p.; for ED50: at TPE (0.5 h; LTG 1.0 h), 95% confidence intervals in parentheses
[1] = system: 6 Hz (32 mA) seizures, mice; test: Psychomotor 6 Hz (32 mA) seizure model; assay type: in vivo; details: for responders at 100 mg/kg / ED50: Mus musculus, ip; for responders at 100 mg/kg / protection in the 6 Hz (32 mA) test: 0.5 h, 100 mg/kg; for responders at 100 mg/kg: read-out: 6 Hz (32 mA) test, number of mice protected / number of mice tested (converted); for ED50: at TPE (0.5 h; LTG 1.0 h), 95% confidence intervals in parentheses; for protection in the 6 Hz (32 mA) test: i.p., groups of four
[2] = Rotarod test for acute neurological toxicity; details: mouse, in vivo, ip
[3] = system: motor coordination of mice; test: Rotarod test for acute neurological toxicity; details: for impairment of motor coordination of mice: doses as high as 300 mg/kg; for Rotarod test, number of mice / number of mice tested: i.p., 100 mg/kg, 0.5 h
[4] = read-out: MES test, number of mice protected / number of mice tested (converted)
[5] = groups of four, read-out: protection in the MES test

Structure (SMILES): O=C(Nc1cccc(F)c1)C(c1ccccc1)N1C(=O)CCC1=O (stereo not shown) [Compound 5, 2-(2,5-Dioxopyrrolidin-1-yl)-N-(3-fluorophenyl)-2-phenylacetamide]
responders at 100 mg/kg (MES seizures, mice; [4]): 0%
responders at 100 mg/kg [1]: 25%

Structure (SMILES): O=C(Nc1ccc(F)cc1)C(c1ccccc1)N1C(=O)CCC1=O (stereo not shown) [Compound 6, 2-(2,5-Dioxopyrrolidin-1-yl)-N-(4-fluorophenyl)-2-phenylacetamide]
responders at 100 mg/kg (MES seizures, mice; [5]): ≥ 50%
responders at 100 mg/kg (MES seizures, mice; [4]): 50%
ED50 (MES seizures, mice): 118 mg/kg
melting point: 143.4 to 143.9 °C
TD50 at 0.5 h [2]: > 300 mg/kg
impairment of motor coordination of mice [3]: did not impair motor coordination
Rotarod test, number of mice / number of mice tested [3]: 0/4
responders at 100 mg/kg [1]: 50%
ED50 [1]: 57.6 mg/kg
protection in the 6 Hz (32 mA) test [1]: at least 50%

melting point: 76.8 to 78.6 °C
Structure (SMILES): O=C(Nc1ccccc1Cl)C(c1ccccc1)N1C(=O)CCC1=O (stereo not shown) [Compound 7, N-(2-Chlorophenyl)-2-(2,5-dioxopyrrolidin-1-yl)-2-phenylacetamide]
responders at 100 mg/kg (MES seizures, mice; [4]): 0%
responders at 100 mg/kg [1]: 25%

Structure (SMILES): O=C(Nc1cccc(Cl)c1)C(c1ccccc1)N1C(=O)CCC1=O (stereo not shown) [Compound 8, N-(3-Chlorophenyl)-2-(2,5-dioxopyrrolidin-1-yl)-2-phenylacetamide]
responders at 100 mg/kg (MES seizures, mice; [5]): ≥ 50%
responders at 100 mg/kg (MES seizures, mice; [4]): 75%
ED50 (MES seizures, mice): 73.5 mg/kg
melting point: 109.4 to 109.9 °C
TD50 at 0.5 h [2]: > 300 mg/kg
impairment of motor coordination of mice [3]: did not impair motor coordination
Rotarod test, number of mice / number of mice tested [3]: 0/4
responders at 100 mg/kg [1]: 25%

Structure (SMILES): O=C(Nc1ccc(Cl)cc1)C(c1ccccc1)N1C(=O)CCC1=O (stereo not shown) [Compound 9, N-(4-Chlorophenyl)-2-(2,5-dioxopyrrolidin-1-yl)-2-phenylacetamide]
responders at 100 mg/kg (MES seizures, mice; [5]): ≥ 50%
responders at 100 mg/kg (MES seizures, mice; [4]): 75%
ED50 (MES seizures, mice): 106 mg/kg
melting point: 103.8 to 105.6 °C
TD50 at 0.5 h [2]: > 300 mg/kg
impairment of motor coordination of mice [3]: did not impair motor coordination
Rotarod test, number of mice / number of mice tested [3]: 0/4
responders at 100 mg/kg [1]: 25%

Structure (SMILES): O=C(Nc1ccccc1C(F)(F)F)C(c1ccccc1)N1C(=O)CCC1=O (stereo not shown) [Compound 10, 2-(2,5-Dioxopyrrolidin-1-yl)-2-phenyl-N-(2-(trifluoromethyl)phenyl)acetamide]
responders at 100 mg/kg (MES seizures, mice; [4]): 0%

melting point: 158.2 to 159.4 °C
Structure (SMILES): O=C(Nc1cccc(C(F)(F)F)c1)C(c1ccccc1)N1C(=O)CCC1=O (stereo not shown) [Compound 11, 2-(2,5-Dioxopyrrolidin-1-yl)-2-phenyl-N-(3-(trifluoromethyl)phenyl)acetamide]
responders at 100 mg/kg (MES seizures, mice; [4]): 25%

melting point: 188.1 to 188.5 °C
Structure (SMILES): O=C(Nc1ccc(C(F)(F)F)cc1)C(c1ccccc1)N1C(=O)CCC1=O (stereo not shown) [Compound 12, 2-(2,5-Dioxopyrrolidin-1-yl)-2-phenyl-N-(4-(trifluoromethyl)phenyl)acetamide]
responders at 100 mg/kg (MES seizures, mice; [4]): 0%

melting point: 132.6 to 133.4 °C
Structure (SMILES): O=C(Nc1cccc(OC(F)(F)F)c1)C(c1ccccc1)N1C(=O)CCC1=O (stereo not shown) [Compound 13, 2-(2,5-Dioxopyrrolidin-1-yl)-2-phenyl-N-(3-(trifluoromethoxy)phenyl)acetamide]
responders at 100 mg/kg (MES seizures, mice; [4]): 0%

Structure (SMILES): O=C(NCc1ccccc1)C(c1ccccc1)N1C(=O)CCC1=O (stereo not shown) [Compound 14, N-Benzyl-2-(2,5-dioxopyrrolidin-1-yl)-2-phenylacetamide]
responders at 100 mg/kg (MES seizures, mice; [5]): ≥ 50%
responders at 100 mg/kg (MES seizures, mice; [4]): 50%
ED50 (MES seizures, mice): > 130 mg/kg
melting point: 128.3 to 129.9 °C
TD50 at 0.5 h [2]: > 300 mg/kg
impairment of motor coordination of mice [3]: did not impair motor coordination
Rotarod test, number of mice / number of mice tested [3]: 1/4
responders at 100 mg/kg [1]: 50%
ED50 [1]: 62.9 mg/kg
protection in the 6 Hz (32 mA) test [1]: at least 50%

melting point: 148.3 to 149.3 °C
Structure (SMILES): O=C(NCc1ccccc1F)C(c1ccccc1)N1C(=O)CCC1=O (stereo not shown) [Compound 15, 2-(2,5-Dioxopyrrolidin-1-yl)-N-(2-fluorobenzyl)-2-phenylacetamide]
responders at 100 mg/kg (MES seizures, mice; [4]): 25%

melting point: 136.7 to 137.7 °C
Structure (SMILES): O=C(NCc1cccc(F)c1)C(c1ccccc1)N1C(=O)CCC1=O (stereo not shown) [Compound 16, 2-(2,5-Dioxopyrrolidin-1-yl)-N-(3-fluorobenzyl)-2-phenylacetamide]
responders at 100 mg/kg (MES seizures, mice; [4]): 25%

melting point: 146.3 to 147.7 °C
Structure (SMILES): O=C(NCc1ccc(F)cc1)C(c1ccccc1)N1C(=O)CCC1=O (stereo not shown) [Compound 17, 2-(2,5-Dioxopyrrolidin-1-yl)-N-(4-fluorobenzyl)-2-phenylacetamide]
responders at 100 mg/kg (MES seizures, mice; [4]): 0%

melting point: 152 to 153.6 °C
Structure (SMILES): O=C(NCc1ccccc1Cl)C(c1ccccc1)N1C(=O)CCC1=O (stereo not shown) [Compound 18, N-(2-Chlorobenzyl)-2-(2,5-dioxopyrrolidin-1-yl)-2-phenylacetamide]
responders at 100 mg/kg (MES seizures, mice; [4]): 0%

Structure (SMILES): O=C(NCc1cccc(Cl)c1)C(c1ccccc1)N1C(=O)CCC1=O (stereo not shown) [Compound 19, N-(3-Chlorobenzyl)-2-(2,5-dioxopyrrolidin-1-yl)-2-phenylacetamide]
responders at 100 mg/kg (MES seizures, mice; [5]): ≥ 50%
responders at 100 mg/kg (MES seizures, mice; [4]): 75%
ED50 (MES seizures, mice): 90.7 mg/kg
TD50 at 0.5 h [2]: > 300 mg/kg
impairment of motor coordination of mice [3]: did not impair motor coordination
Rotarod test, number of mice / number of mice tested [3]: 0/4
responders at 100 mg/kg [1]: 50%
ED50 [1]: 89.9 mg/kg
protection in the 6 Hz (32 mA) test [1]: at least 50%

melting point: 146.3 to 147.9 °C
Structure (SMILES): O=C(NCc1ccc(Cl)cc1)C(c1ccccc1)N1C(=O)CCC1=O (stereo not shown) [Compound 20, N-(4-Chlorobenzyl)-2-(2,5-dioxopyrrolidin-1-yl)-2-phenylacetamide]
responders at 100 mg/kg (MES seizures, mice; [4]): 0%

Structure (SMILES): O=C(NCc1cccc(C(F)(F)F)c1)C(c1ccccc1)N1C(=O)CCC1=O (stereo not shown) [Compound 22, 2-(2,5-Dioxopyrrolidin-1-yl)-2-phenyl-N-(3-(trifluoromethyl)benzyl)acetamide]
responders at 100 mg/kg (MES seizures, mice; [5]): ≥ 50%
responders at 100 mg/kg (MES seizures, mice; [4]): 75%
ED50 (MES seizures, mice): > 130 mg/kg
melting point: 152.8 to 153.4 °C
TD50 at 0.5 h [2]: > 300 mg/kg
impairment of motor coordination of mice [3]: did not impair motor coordination
Rotarod test, number of mice / number of mice tested [3]: 0/4
responders at 100 mg/kg [1]: 50%
ED50 [1]: 57.6 mg/kg
protection in the 6 Hz (32 mA) test [1]: at least 50%

Structure (SMILES): O=C(NCc1ccc(C(F)(F)F)cc1)C(c1ccccc1)N1C(=O)CCC1=O (stereo not shown) [Compound 23, 2-(2,5-Dioxopyrrolidin-1-yl)-2-phenyl-N-(4-(trifluoromethyl)benzyl)acetamide]
responders at 100 mg/kg (MES seizures, mice; [4]): 0%

melting point: 142.4 to 142.8 °C
Structure (SMILES): O=C(NCCc1ccccc1F)C(c1ccccc1)N1C(=O)CCC1=O (stereo not shown) [Compound 26, 2-(2,5-Dioxopyrrolidin-1-yl)-N-(2-fluorophenethyl)-2-phenylacetamide]
responders at 100 mg/kg (MES seizures, mice; [4]): 25%

Structure (SMILES): O=C(NCCc1ccc(Cl)cc1)C(c1ccccc1)N1C(=O)CCC1=O (stereo not shown) [Compound 28, N-(4-Chlorophenethyl)-2-(2,5-dioxopyrrolidin-1-yl)-2-phenylacetamide]
responders at 100 mg/kg (MES seizures, mice; [4]): 100%
ED50 (MES seizures, mice): 117 mg/kg
melting point: 137.2 to 137.8 °C
TD50 at 0.5 h [2]: 272 mg/kg
Rotarod test, number of mice / number of mice tested [3]: 1/4
responders at 100 mg/kg [1]: 75%
ED50 [1]: 88.1 mg/kg

Structure (SMILES): O=C(NCCCc1ccccc1)C(c1ccccc1)N1C(=O)CCC1=O (stereo not shown) [Compound 31, 2-(2,5-Dioxopyrrolidin-1-yl)-2-phenyl-N-(3-phenylpropyl)acetamide]
responders at 100 mg/kg (MES seizures, mice; [5]): ≥ 50%
responders at 100 mg/kg (MES seizures, mice; [4]): 50%
melting point: 133.1 to 133.9 °C
TD50 at 0.5 h [2]: > 300 mg/kg
Rotarod test, number of mice / number of mice tested [3]: 0/4
responders at 100 mg/kg [1]: 50%
ED50 [1]: 104 mg/kg
